{
  "source": "patent US20110009376A1",
  "about": "“PROPHYLACTIC OR THERAPEUTIC AGENT FOR EYE DISEASE ACCOMPANIED BY OPTIC NERVE DISORDER” (priority 2008, published 2011)",
  "key": {"GCLM": {"system": "GCLM", "experiment": "Induction of gene expression in rat fetus-derived retinal neuron culture system (quantitative PCR)", "format": "cell-based", "details": "mean ± standard deviation, normalized to GAPDH", "procedure": "(§1) Test 1: Study of Ability to Induce Expression of Genes of Phase II Xenobiotic Metabolizing Enzyme and Antioxidant Enzyme using Rat Fetus-Derived Retinal Neuron Culture System\n(§2) The ability of Ebselen to induce the expression of genes of a phase II xenobiotic metabolizing enzyme and an antioxidant enzyme was evaluated using a rat fetus-derived retinal neuron culture system (Brain Res. 2003; 967: 257-66) Incidentally, the rat fetus-derived retinal neuron culture system has been extensively used as a technique for culturing retinal neurons and has been widely used as one of the tools for studying optic nerve diseases such as glaucoma.\n(§3) Retinal neurons of a rat fetus (Slc:Wistar/ST, 18 days old) were isolated and seeded onto a polyethyleneimine-coated plastic coverslip. Then, the cells were cultured for 3 days in an Eagle's minimum essential medium supplemented with 10% fetal bovine serum. Thereafter, a solvent (0.1% ethanol) or Ebselen was added thereto to give a final concentration of 25 μM, and the cells were incubated in the culture medium. Incidentally, the culture was performed under the conditions of 37° C. and 5% CO2. The culture medium was removed at each time point of 4, 8, or 12 hours after initiation of incubation. A mixed solution was prepared by adding 1% (v/v) β-mercaptoethanol (manufactured by BioRad, Cat No. 161-0710) to Buffer RLT attached to RNeasy Mini Kit (250) (manufactured by QIAGEN, Cat No. 74106), and the retinal neurons on the plastic coverslip were lysed with the thus prepared mixed solution. The total RNA was extracted from the resulting cell lysate according to the protocol attached to the RNeasy Mini Kit (250), and cDNA was synthesized using ExScript™ RT reagent Kit (manufactured by TAKARA, Cat No. RR035B). According to the protocol attached to SYBR Premix Ex Taq (Perfect Real Time) (manufactured by TAKARA, Cat No. RR041B), SYBR Premix Ex Taq (Perfect Real Time), ROX Reference Dye, the synthesized cDNA, and each primer pair of glyceraldehyde-3-phosphate dehydrogenase (hereinafter also referred to as “GAPDH”), GCLM, TRxR, HO-1, or NQO-1 (manufactured by Nihon Gene Research Laboratories Inc.) were mixed, and PCR reaction was performed using a quantitative PCR system (manufactured by Applied Biosystems, system name: ABI PRISM 7000), and the expression level of each of the genes of GAPDH, GCLM, TRxR, HO-1, and NQO-1 was measured. From the obtained results, a relative expression level of each target gene was calculated by normalizing the expression level of each target gene with the expression level of GAPDH which is a housekeeping gene according to the equation 1. Further, an induction ratio (%) of each target gene to the vehicle group was obtained by dividing the value of the expression level of each gene in the 25 μM Ebselen group by a mean value of the expression level of the same gene in the vehicle group according to the equation 2. Each data was shown as the mean±standard deviation of three independent experiments.\n(§4) Relative expression level of each target gene=(Expression level of each gene/Expression level of GAPDH) [Equation 1]\n(§5) Induction ratio of each target gene to vehicle group (%)=(Expression level of each gene in 25 μM Ebselen group/Expression level of each gene in vehicle group) [Equation 2]"}, "HO-1": {"system": "HO-1", "experiment": "Induction of gene expression in rat fetus-derived retinal neuron culture system (quantitative PCR)", "format": "cell-based", "details": "mean ± standard deviation, normalized to GAPDH", "procedure": "as §1, §2, §3, §4, §5"}, "NQO-1": {"system": "NQO-1", "experiment": "Induction of gene expression in rat fetus-derived retinal neuron culture system (quantitative PCR)", "format": "cell-based", "details": "mean ± standard deviation, normalized to GAPDH", "procedure": "as §1, §2, §3, §4, §5"}, "TRxR": {"system": "TRxR", "experiment": "Induction of gene expression in rat fetus-derived retinal neuron culture system (quantitative PCR)", "format": "cell-based", "details": "mean ± standard deviation, normalized to GAPDH", "procedure": "as §1, §2, §3, §4, §5"}, "[1]": {"system": "cells in the retinal ganglion cell layer", "experiment": "Rat model of ischemia/reperfusion-induced retinal damage", "format": "in vivo", "details": "oral, twice daily for 12 days, eyes taken 7 days after ischemia/reperfusion", "procedure": "The usefulness of Ebselen against retinal ischemia/reperfusion damage was evaluated using a rat model of ischemia/reperfusion-induced retinal damage (Ophthalmologica. 1991; 203: 138-147) as a model for studying an effect on retinal damage induced by ischemia/reperfusion.\nA 1% (w/v) atropine sulfate hydrate ophthalmic solution (manufactured by Nihon Tenganyaku, Co. Ltd., product name: Nitten ATROPINE Ophthalmic Solution 1%) was instilled into the eye of a rat (Slc:SD, male, about 7 weeks old) to cause mydriasis, and general anesthesia was induced by allowing the rat to inhale a gas obtained by vaporizing 3% (v/v) halothane (manufactured by Takeda Pharmaceutical Company Limited., product name: Fluothane) by a mixed gas (2 L/min) of 100% (v/v) oxygen (0.5 L/min) and 100% (v/v) nitrous oxide (1.5 L/min), and the anesthesia was maintained under conditions of 1% (v/v) halothane. […] From the 8 sections, 3 sections were arbitrarily selected, and with respect to the selected sections, a photograph of the retina in the range of from 1 to 1.5 mm on the left or right side from the optic nerve head was taken, and the number of cells in the retinal ganglion cell layer was measured. […]"}, "[2]": {"system": "photoreceptor cells (visual cells)", "details": "ischemia/reperfusion rabbit model; cited from earlier work"}, "chick retinal cells": {"system": "chick retinal cells", "details": "chick retinal cells in an embryonic stage; cited from earlier work"}},
  "data": [
    {"smiles": "O=c1c2ccccc2[se]n1-c1ccccc1", "note": "[Ebselen, 2-phenyl-1,2-benzisoselenazol-3(2H)-one]", "values": [
      {"measurement": "Induction ratio of expression of GCLM gene in 25 μM Ebselen group to vehicle group", "setting": "GCLM; after 4 hours", "result": "198 ± 18", "unit": "%"},
      {"measurement": "Induction ratio of expression of GCLM gene in 25 μM Ebselen group to vehicle group", "setting": "GCLM; after 8 hours", "result": "194 ± 14", "unit": "%"},
      {"measurement": "Induction ratio of expression of GCLM gene in 25 μM Ebselen group to vehicle group", "setting": "GCLM; after 12 hours", "result": "172 ± 13", "unit": "%"},
      {"measurement": "Induction ratio of expression of HO-1 gene in 25 μM Ebselen group to vehicle group", "setting": "HO-1; after 4 hours", "result": "1263 ± 365", "unit": "%"},
      {"measurement": "Induction ratio of expression of HO-1 gene in 25 μM Ebselen group to vehicle group", "setting": "HO-1; after 8 hours", "result": "1458 ± 307", "unit": "%"},
      {"measurement": "Induction ratio of expression of HO-1 gene in 25 μM Ebselen group to vehicle group", "setting": "HO-1; after 12 hours", "result": "1311 ± 237", "unit": "%"},
      {"measurement": "Induction ratio of expression of NQO-1 gene in 25 μM Ebselen group to vehicle group", "setting": "NQO-1; after 4 hours", "result": "450 ± 74", "unit": "%"},
      {"measurement": "Induction ratio of expression of NQO-1 gene in 25 μM Ebselen group to vehicle group", "setting": "NQO-1; after 8 hours", "result": "937 ± 183", "unit": "%"},
      {"measurement": "Induction ratio of expression of NQO-1 gene in 25 μM Ebselen group to vehicle group", "setting": "NQO-1; after 12 hours", "result": "1266 ± 212", "unit": "%"},
      {"measurement": "Induction ratio of expression of TRxR gene in 25 μM Ebselen group to vehicle group", "setting": "TRxR; after 4 hours", "result": "225 ± 11", "unit": "%"},
      {"measurement": "Induction ratio of expression of TRxR gene in 25 μM Ebselen group to vehicle group", "setting": "TRxR; after 8 hours", "result": "193 ± 13", "unit": "%"},
      {"measurement": "Induction ratio of expression of TRxR gene in 25 μM Ebselen group to vehicle group", "setting": "TRxR; after 12 hours", "result": "301 ± 26", "unit": "%"},
      {"measurement": "Suppression ratio against decrease in the number of cells in retinal ganglion cell layer", "setting": "[1]; 3 mg/kg/day", "result": 38.0, "unit": "%"},
      {"measurement": "Suppression ratio against decrease in the number of cells in retinal ganglion cell layer", "setting": "[1]; 30 mg/kg/day", "result": 59.7, "unit": "%"},
      {"measurement": "Effect on b-wave of the electroretinogram (ERG) after ischemia/reperfusion", "setting": "[2]", "result": "attenuated the reduction of the b-wave"},
      {"measurement": "Effect on cell death caused by glutamate excitotoxicity", "setting": "chick retinal cells", "result": "inhibited the cell death caused by glutamate excitotoxicity"}
    ]}
  ]
}
